How the values were obtained:
[1] = background statement; cited from earlier work
[2] = background statement; cited from earlier work; remark: listed apart in the source
[3] = Stability test on the fulvestrant suspensions of Examples 1-3: related substances (EP10.0 method); type: physicochemical; conditions: starting material
Protocol: The fulvestrant suspensions prepared in Examples 1 and 2 were stored in a refrigerator at 4° C. for 14 days or 10 days, and tested for related substances.
The fulvestrant suspension prepared in Example 3 was placed at −20° C., 4° C., 25° C., 40° C. or 60° C., and tested for related substances, the morphology, particle size distribution and crystalline form changes of the fulvestrant solid particles. The test for the related substances was performed according to the EP10.0 method.

C[C@]12CC[C@@H]3c4ccc(O)cc4C[C@@H](CCCCCCCCC[S+]([O-])CCCC(F)(F)C(F)(F)F)[C@H]3[C@@H]1CC[C@@H]2O (some centres unmarked) [Fulvestrant, 7-(9-(4,4,5,5,5-pentafluoropentylsulfinyl)nonyl)estra-1,3,5(10)-triene-3,17-diol]
oral bioavailability [1]: low
water solubility [2]: very low
Main peak, peak area [3]: 99.84%
RRT 0.51, peak area [3]: 0.01%
RRT 0.88, peak area [3]: 0.05%
RRT 1.19, peak area [3]: 0.04%
RRT 2.92, peak area [3]: 0.03%
Total impurities, peak area [3]: 0.05%
